Reference: patent US20080227655A1, “Assessment of effect of an agent on a human biological condition using rodent gene expression panels” (priority 2006, published 2008)
Where “and” joins values, the source holds several entries; their conditions need not be identical. Identical values can stand only once.

Tested on: custom murine 40-gene Precision Profile for Rheumatoid Arthritis, whole blood
Test: Collagen Induced Arthritis (CIA) model, whole blood gene expression by QPCR, vehicle or dexamethasone treatment
Assay type: in vivo, male DBA/1 mice
Details: for Normalized CT (Delta CT) IL1RAP_M / Normalized CT (Delta CT) IL1RN—M / Normalized CT (Delta CT) IL6_M / Normalized CT (Delta CT) JUN_M / Normalized CT (Delta CT) MEF2C—M / Normalized CT (Delta CT) NFKB1—M / Normalized CT (Delta CT) PADI4—M / Normalized CT (Delta CT) PLA2G7—M / Normalized CT (Delta CT) PTPRC_M / Normalized CT (Delta CT) PTX3_M / Normalized CT (Delta CT) SER-PINE1_M / Normalized CT (Delta CT) TGFB1_M / Normalized CT (Delta CT) TIMP1_M / Normalized CT (Delta CT) TLR2_M / Normalized CT (Delta CT) TLR4_M / Normalized CT (Delta CT) TNFSF5—M / Normalized CT (Delta CT) TNF_M / Normalized CT (Delta CT) VEGF_M: whole blood
Procedure: Whole blood gene expression changes were evaluated in vehicle control and drug-treated murine subjects across two murine models of arthritis according to the following arthritis models:
KRN Transgenic Mouse (K/B×N): K/B×N serum from transgenic mouse used to induce arthritis in female BALB/c mice (n=54). Collagen Induced Arthritis (CIA): Bovine type II collagen used to induce arthritis in male DBA/1 mice (n=54).
In addition, naïve, untreated animal groups at baseline and terminal day were included to control for potential age-related changes in gene expression over the extended study periods. Animal groups, time-points, and treatment schedules are summarized in Tables 20A and 20B, respectively.
Whole blood samples from animals were collected by retro-orbital bleed at selected time-points in accordance with the arthritis study schemas described in […], and transferred into sample collection tubes containing a 1.5× lysis solution and RPMI. Samples were processed into total RNA and cDNA. […] It was anticipated from these murine models would provide a better understanding of the relevant molecular response of arthritis induction and their potential correlation to the human disease condition.
Normal murine subject reference values (represented as normalized Ct or ΔCt values) were established for male DBA/1 mice (n=6 for the CIA study arm) and female BALB/c mice (n=6 for the KRN study arm). In both arms of the study, gene expression response of normal (naïve, non-immunized and untreated) murine subjects were evaluated in groups of 6 each at day 0 and day 60 for the CIA study arm, and at day 0 and day 21 for the KRN study arm (see Tables 20A and 20B).
Gene expression responses for this arthritis-induced murine model were evaluated for untreated mice at day 24 and vehicle-treated mice at days 33, 42, and 60 to characterize disease progression.

[1] = CIA Day 33 Treated, group Average
[2] = CIA Day 33 Treated, individual mice
[3] = CIA Day 42 Treated, group Average

## C[C@@H]1C[C@H]2[C@@H]3CCC4=CC(=O)C=C[C@]4(C)[C@@]3(F)[C@@H](O)C[C@]2(C)[C@@]1(O)C(=O)CO [Dexamethasone]
[1]
  ABCA1_M Normalized CT Value (Delta CT), Average: 17.98
  APAF1_M Normalized CT Value (Delta CT), Average: 19.03
  ARG2_M Normalized CT Value (Delta CT), Average: 17.82
  CASP1_M Normalized CT Value (Delta CT), Average: 18.22
  CASP3_M Normalized CT Value (Delta CT), Average: 17.75
  CCR3_M Normalized CT Value (Delta CT), Average: 19.87
  CD8A_M Normalized CT Value (Delta CT), Average: 18.74
  CD14_M Normalized CT Value (Delta CT), Average: 17.29
  CD32_M Normalized CT Value (Delta CT), Average: 18.45
  CD86_M Normalized CT Value (Delta CT), Average: 22.19
  CSPG2_M Normalized CT Value (Delta CT), Average: 18.04
  F3_M Normalized CT Value (Delta CT), Average: 25.08
  HMOX1—M Normalized CT Value (Delta CT), Average: 17.47
  HSPA1A—M Normalized CT Value (Delta CT), Average: 19.62
  ICAM1—M Normalized CT Value (Delta CT), Average: 18.84
  IFI16_M Normalized CT Value (Delta CT), Average: 18.42
  IL1A_M Normalized CT Value (Delta CT), Average: 24.44
  IL1B_M Normalized CT Value (Delta CT), Average: 14.09
  IL10_M Normalized CT Value (Delta CT), Average: 25.81
  Normalized CT (Delta CT) IL1RAP_M: 17.96
  Normalized CT (Delta CT) IL1RN—M: 17.38
  Normalized CT (Delta CT) IL6_M: 23.95
  Normalized CT (Delta CT) JUN_M: 19.37
  Normalized CT (Delta CT) MEF2C—M: 18.84
  Normalized CT (Delta CT) NFKB1—M: 16.55
  Normalized CT (Delta CT) PADI4—M: 17.87
  Normalized CT (Delta CT) PLA2G7—M: 14.85
  Normalized CT (Delta CT) PTPRC_M: 13.58
  Normalized CT (Delta CT) PTX3_M: 25.65
  Normalized CT (Delta CT) SER-PINE1_M: 20.38
  Normalized CT (Delta CT) TGFB1_M: 14.82
  Normalized CT (Delta CT) TIMP1_M: 25.24
  Normalized CT (Delta CT) TLR2_M: 17.70
  Normalized CT (Delta CT) TLR4_M: 18.20
  Normalized CT (Delta CT) TNFSF5—M: 21.06
  Normalized CT (Delta CT) TNF_M: 19.71
  Normalized CT (Delta CT) VEGF_M: 20.19
[2]
  ABCA1_M Normalized CT Value (Delta CT): 17.26 and 18.20 and 17.50 and 17.61 and 19.02 and 18.30
  APAF1_M Normalized CT Value (Delta CT): 18.67 and 19.22 and 18.56 and 19.02 and 19.62 and 19.07
  ARG2_M Normalized CT Value (Delta CT): 17.14 and 18.42 and 17.47 and 17.92 and 17.83 and 18.15
  CASP1_M Normalized CT Value (Delta CT): 17.29 and 18.41 and 17.98 and 18.58 and 18.74 and 18.31
  CASP3_M Normalized CT Value (Delta CT): 16.82 and 17.64 and 17.74 and 18.06 and 18.00 and 18.21
  CCR3_M Normalized CT Value (Delta CT): 18.36 and 19.59 and 19.88 and 20.33 and 20.88 and 20.15
  CD8A_M Normalized CT Value (Delta CT): 17.83 and 18.69 and 18.52 and 18.83 and 19.44 and 19.14
  CD14_M Normalized CT Value (Delta CT): 17.10 and 17.77 and 16.89 and 17.05 and 17.36 and 17.54
  CD32_M Normalized CT Value (Delta CT): 17.52 and 18.69 and 18.07 and 18.17 and 19.57 and 18.71
  CD86_M Normalized CT Value (Delta CT): 21.71 and 22.43 and 21.83 and 21.99 and 22.92 and 22.26
  CSPG2_M Normalized CT Value (Delta CT): 17.33 and 18.26 and 17.36 and 18.91 and 17.94 and 18.42
  F3_M Normalized CT Value (Delta CT): 23.01 and 25.60 and 26.10 and 25.22 and 24.87 and 25.67
  HMOX1—M Normalized CT Value (Delta CT): 16.95 and 17.50 and 17.08 and 17.53 and 17.80 and 17.98
  HSPA1A—M Normalized CT Value (Delta CT): 18.80 and 20.04 and 19.25 and 20.03 and 19.32 and 20.30
  ICAM1—M Normalized CT Value (Delta CT): 18.16 and 19.11 (2×) and 18.33 and 19.33 and 19.01
  IFI16_M Normalized CT Value (Delta CT): 17.31 and 18.37 and 18.29 and 18.56 and 18.70 and 19.31
  IL1A_M Normalized CT Value (Delta CT): 24.58 and 24.31
  IL1B_M Normalized CT Value (Delta CT): 13.46 and 14.53 and 13.95 and 14.00 and 14.32 and 14.27
  IL10_M Normalized CT Value (Delta CT): 25.17 and 25.58 and 26.12 and 26.14 and 25.77 and 26.06
  Normalized CT (Delta CT) IL1RAP_M: 17.64 (2×) and 18.18 and 17.83 and 18.26 and 18.20
  Normalized CT (Delta CT) IL1RN—M: 16.72 and 17.84 and 17.10 and 17.67 and 17.23 and 17.73
  Normalized CT (Delta CT) IL6_M: 23.19 and 24.14 and 23.12 and 24.21 and 24.22 and 24.83
  Normalized CT (Delta CT) JUN_M: 18.61 and 19.69 and 19.28 and 19.18 and 19.87 and 19.60
  Normalized CT (Delta CT) MEF2C—M: 18.46 and 19.03 and 18.51 and 18.82 and 19.65 and 18.56
  Normalized CT (Delta CT) NFKB1—M: 15.81 and 16.66 and 16.35 and 16.51 and 17.38 and 16.63
  Normalized CT (Delta CT) PADI4—M: 17.79 and 18.22 and 17.82 and 17.94 and 17.90 and 17.58
  Normalized CT (Delta CT) PLA2G7—M: 14.49 and 15.12 and 14.67 and 15.01 and 15.09 and 14.74
  Normalized CT (Delta CT) PTPRC_M: 13.01 and 13.82 and 13.27 and 13.81 and 14.11 and 13.46
  Normalized CT (Delta CT) PTX3_M: 25.66 and 25.46 and 25.62 and 25.86 and 26.01 and 25.32
  Normalized CT (Delta CT) SER-PINE1_M: 20.09 and 20.42 and 20.70 and 20.01 and 20.26 and 20.78
  Normalized CT (Delta CT) TGFB1_M: 14.47 and 14.92 and 14.68 and 14.99 and 14.96 and 14.87
  Normalized CT (Delta CT) TIMP1_M: 25.48 and 25.27 and 25.34 and 25.05 and 25.73 and 24.56
  Normalized CT (Delta CT) TLR2_M: 17.23 and 17.92 and 17.46 and 17.97 and 17.84 and 17.81
  Normalized CT (Delta CT) TLR4_M: 17.72 and 18.52 and 18.24 and 18.23 and 18.30 and 18.16
  Normalized CT (Delta CT) TNFSF5—M: 20.24 and 21.35 and 20.73 and 21.36 and 21.76 and 20.95
  Normalized CT (Delta CT) TNF_M: 18.97 and 20.16 and 19.24 and 19.56 and 20.34 and 20.01
  Normalized CT (Delta CT) VEGF_M: 19.55 and 20.59 and 19.74 and 20.04 and 21.29 and 19.96
[3]
  ABCA1_M Normalized CT Value (Delta CT), Average: 19.35
  APAF1_M Normalized CT Value (Delta CT), Average: 19.60
  ARG2_M Normalized CT Value (Delta CT), Average: 17.90
  CASP1_M Normalized CT Value (Delta CT), Average: 18.55
  CASP3_M Normalized CT Value (Delta CT), Average: 18.07
  CCR3_M Normalized CT Value (Delta CT), Average: 19.53
  CD8A_M Normalized CT Value (Delta CT), Average: 19.66
  CD14_M Normalized CT Value (Delta CT), Average: 17.57
